In patent publication US9695155B2, “Herbicidal substituted pyrimidinyloxy benzene compounds” (E. I. DU PONT DE NEMOURS AND COMPANY, priority 2013, dated 2017):

Assays:
johnsongrass = assay: Test C preemergence; type: in vivo, Sorghum halepense; settings: for Plant response rating, Johnsongrass: Preemergence, 31 g ai/ha, scale 0 to 100, 0 no effect, 100 complete control
How it was run: (§1)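 Seeds are planted in blended loam soil and sand and treated preemergence, while seedlings in a peat moss/vermiculite medium receive postemergence sprays at 2 to 18 cm height. All plants stay in the greenhouse for 13 to 15 days before visual comparison with controls on a 0–100 scale.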

soybean = assay: Test C preemergence; type: in vivo, Glycine max; settings: for Plant response rating, Soybean: Preemergence, 31 g ai/ha, scale 0 to 100, 0 no effect, 100 complete control
How it was run: as §1

waterhemp = assay: Test C preemergence; type: in vivo, Amaranthus rudis; settings: for Plant response rating, Waterhemp: Preemergence, 31 g ai/ha, scale 0 to 100, 0 no effect, 100 complete control
How it was run: as §1

chickweed = assay: Test C postemergence; type: in vivo, Stellaria media
How it was run: as §1

velvetleaf [1] = assay: Test A preemergence; type: in vivo, Abutilon theophrasti
How it was run: (§2)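 Scoring: eye-based comparison with untreated controls, 0 for no effect through 100 for complete control, at about day 10. Treatments: directed soil spray preemergence; foliar spray postemergence on 2–10 cm plants at the one- to two-leaf stage. Medium: loam soil with sand.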

barnyardgrass = assay: Test A postemergence; type: in vivo, Echinochloa crus-galli
How it was run: as §2

velvetleaf [2] = assay: Test C postemergence; type: in vivo, Abutilon theophrasti
How it was run: as §1

sedge, umbrella = assay: Test B flooded paddy test; type: in vivo, Cyperus difformis; settings: Flood, 250 g ai/ha, 0 to 100 scale where 0 is no effect and 100 is complete control
How it was run: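 Seedlings are raised to two leaves, flooded to a depth of 3 cm and dosed by adding the compound to the floodwater. Water level is kept constant, and plants are scored visually versus controls 13–15 days later (0 = no effect, 100 = complete control).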

oilseed rape [3] = assay: Test C postemergence; type: in vivo, Brassica napus
How it was run: as §1

oilseed rape [4] = assay: Test C preemergence; type: in vivo, Brassica napus; settings: for Plant response rating, Oilseed Rape: Preemergence, 31 g ai/ha, scale 0 to 100, 0 no effect, 100 complete control
How it was run: as §1

[5] = 16 g ai/ha, preemergence, scale 0 to 100 (0 no effect, 100 complete control)
[6] = 62 g ai/ha, preemergence, scale 0 (no effect) to 100 (complete control)
[7] = 125 g ai/ha, preemergence, scale 0 (no effect) to 100 (complete control)
[8] = 16 g ai/ha, postemergence, visual rating, scale 0 to 100 (0 no effect, 100 complete control), 13 to 15 days
[9] = Postemergence, 31 g ai/ha, scale 0 to 100 (0 no effect, 100 complete control), 13 to 15 days
[10] = Postemergence, 62 g ai/ha, scale 0 to 100 (0 no effect, 100 complete control)
[11] = 125 g ai/ha, 0 to 100 scale where 0 is no effect and 100 is complete control
[12] = 500 g ai/ha, 0 to 100 scale where 0 is no effect and 100 is complete control
[13] = 125 g ai/ha, postemergence, visual rating, scale 0 to 100 (0 no effect, 100 complete control)
[14] = 16 g ai/ha, postemergence, 0 is no effect, 100 is complete control
[15] = 31 g ai/ha, postemergence, visual rating, scale 0 to 100 (0 no effect, 100 complete control), 13 to 15 days

CCOc1cnn(-c2c(C#N)cccc2Oc2ncc(Cl)cn2)c1 [Compound 92]
Johnsongrass plant response rating (johnsongrass; [5]): 0
Johnsongrass plant response rating (johnsongrass; [6]): 70
Johnsongrass plant response rating (johnsongrass; [7]): 85
Plant response rating, Johnsongrass (johnsongrass): 5
Soybean plant response rating (soybean; [5]): 30
Soybean plant response rating (soybean; [6]): 80
Soybean plant response rating (soybean; [7]): 95
Plant response rating, Soybean (soybean): 65
Waterhemp plant response rating (waterhemp; [5]): 95
Waterhemp plant response rating (waterhemp; [6]): 100
Waterhemp plant response rating (waterhemp; [7]): 100
Plant response rating, Waterhemp (waterhemp): 98
Chickweed plant response rating (chickweed; [8]): 50
Plant response rating (0 to 100), Chickweed (chickweed; 125 g ai/ha, postemergence): 70
Plant response rating, Chickweed (chickweed; [9]): 60
Plant response rating, Chickweed (chickweed; [10]): 60
Plant response rating, Velvetleaf (velvetleaf [1]; [11]): 100
Plant response rating, Barnyardgrass (barnyardgrass; [11]): 90
Plant response rating, Barnyardgrass (barnyardgrass; [12]): 100
Plant response rating (0 to 100), Velvetleaf (velvetleaf [2]; 125 g ai/ha, postemergence): 60
Plant response rating, Velvetleaf (velvetleaf [2]; [9]): 45
Plant response rating, Velvetleaf (velvetleaf [2]; [10]): 50
Plant response rating, Sedge, Umbrella (sedge, umbrella): 90
Plant response rating (0 to 100), Oilseed Rape (oilseed rape [3]; 125 g ai/ha, postemergence): 70
Plant response rating, Oilseed Rape (oilseed rape [3]; [9]): 45
Plant response rating, Oilseed Rape (oilseed rape [3]; [10]): 60
Oilseed Rape plant response rating (oilseed rape [4]; [5]): 80
Oilseed Rape plant response rating (oilseed rape [4]; [6]): 85
Oilseed Rape plant response rating (oilseed rape [4]; [7]): 95
Plant response rating, Oilseed Rape (oilseed rape [4]): 80

N#Cc1cnn(-c2c(C#N)cccc2Oc2ncc(F)cn2)c1 [Compound 111]
Johnsongrass plant response rating (johnsongrass; [5]): 0
Johnsongrass plant response rating (johnsongrass; [6]): 25
Johnsongrass plant response rating (johnsongrass; [7]): 80
Plant response rating, Johnsongrass (johnsongrass): 5
Soybean plant response rating (soybean; [5]): 30
Soybean plant response rating (soybean; [6]): 80
Soybean plant response rating (soybean; [7]): 95
Plant response rating, Soybean (soybean): 60
Waterhemp plant response rating (waterhemp; [5]): 100
Waterhemp plant response rating (waterhemp; [6]): 100
Waterhemp plant response rating (waterhemp; [7]): 100
Plant response rating, Waterhemp (waterhemp): 100
Chickweed plant response rating (chickweed; [8]): 50
Plant response rating, Chickweed (chickweed; [13]): 95
Plant response rating, Chickweed (chickweed; [10]): 75
Plant response rating, Velvetleaf (velvetleaf [1]; [11]): 70
Plant response rating, Barnyardgrass (barnyardgrass; [11]): 60
Plant response rating, Barnyardgrass (barnyardgrass; [12]): 90
Plant response rating, Velvetleaf (velvetleaf [2]; [13]): 80
Plant response rating, Velvetleaf (velvetleaf [2]; [10]): 75
Plant response rating, Sedge, Umbrella (sedge, umbrella): 75
Plant response rating, Oilseed Rape (oilseed rape [3]; [13]): 80
Plant response rating, Oilseed Rape (oilseed rape [3]; [10]): 60
Oilseed Rape plant response rating (oilseed rape [4]; [5]): 60
Oilseed Rape plant response rating (oilseed rape [4]; [6]): 98
Oilseed Rape plant response rating (oilseed rape [4]; [7]): 100
Plant response rating, Oilseed Rape (oilseed rape [4]): 90

N#Cc1cn(-c2c(Br)cccc2Oc2ncc(Cl)cn2)nn1 [Compound 116]
Johnsongrass plant response rating (johnsongrass; [5]): 0
Johnsongrass plant response rating (johnsongrass; [6]): 55
Johnsongrass plant response rating (johnsongrass; [7]): 70
Plant response rating, Johnsongrass (johnsongrass): 25
Soybean plant response rating (soybean; [5]): 0
Soybean plant response rating (soybean; [6]): 40
Soybean plant response rating (soybean; [7]): 70
Plant response rating, Soybean (soybean): 25
Waterhemp plant response rating (waterhemp; [5]): 100
Waterhemp plant response rating (waterhemp; [6]): 100
Waterhemp plant response rating (waterhemp; [7]): 100
Plant response rating, Waterhemp (waterhemp): 100
Plant response rating (0 to 100), Chickweed (chickweed; [14]): 40
Plant response rating, Chickweed (chickweed; [13]): 80
Plant response rating, Chickweed (chickweed; [10]): 55
Velvetleaf plant response rating (velvetleaf [1]; 1000 g ai/ha, 0 to 100 scale, 0 no effect, 100 complete control, approx. 10 days): 100
Plant response rating, Barnyardgrass (barnyardgrass; 1000 g ai/ha, 0 to 100 scale, 0 no effect, 100 complete control): 90
Plant response rating (0 to 100), Velvetleaf (velvetleaf [2]; [14]): 25
Plant response rating, Velvetleaf (velvetleaf [2]; [13]): 85
Plant response rating, Velvetleaf (velvetleaf [2]; [10]): 60
Plant response rating, Sedge, Umbrella (sedge, umbrella): 30
Plant response rating (0 to 100), Oilseed Rape (oilseed rape [3]; [14]): 5
Plant response rating, Oilseed Rape (oilseed rape [3]; [13]): 40
Plant response rating, Oilseed Rape (oilseed rape [3]; [10]): 10
Oilseed Rape plant response rating (oilseed rape [4]; [5]): 0
Oilseed Rape plant response rating (oilseed rape [4]; [6]): 98
Oilseed Rape plant response rating (oilseed rape [4]; [7]): 100
Plant response rating, Oilseed Rape (oilseed rape [4]): 5

FC(F)(F)c1cn(-c2ccccc2Oc2ncc(Cl)cn2)nn1 [Compound 166, 5-chloro-2-[2-[4-(trifluoromethyl)-1H-1,2,3-triazol-1-yl]phenoxy]pyrimidine]
pest or weed control at 16 g/ha (johnsongrass; Sorghum halepense, pre-emergence, 16 g ai/ha, preemergence, scale 0 to 100 (0 no effect, 100 complete control), read-out: Johnsongrass plant response rating): 5%
pest or weed control at 62 g/ha (johnsongrass; Sorghum halepense, pre-emergence, 62 g ai/ha, preemergence, scale 0 (no effect) to 100 (complete control), read-out: Johnsongrass plant response rating): 85%
pest or weed control at 125 g/ha (johnsongrass; Sorghum halepense, pre-emergence, 125 g ai/ha, preemergence, scale 0 (no effect) to 100 (complete control), read-out: Johnsongrass plant response rating): 95%
plant injury at 16 g/ha (soybean; Glycine max, pre-emergence, 16 g ai/ha, preemergence, scale 0 to 100 (0 no effect, 100 complete control), read-out: Soybean plant response rating): 60%
plant injury at 62 g/ha (soybean; Glycine max, pre-emergence, 62 g ai/ha, preemergence, scale 0 (no effect) to 100 (complete control), read-out: Soybean plant response rating): 95%
plant injury at 125 g/ha (soybean; Glycine max, pre-emergence, 125 g ai/ha, preemergence, scale 0 (no effect) to 100 (complete control), read-out: Soybean plant response rating): 95%
pest or weed control at 16 g/ha (waterhemp; Amaranthus tuberculatus, pre-emergence, 16 g ai/ha, preemergence, scale 0 to 100 (0 no effect, 100 complete control), read-out: Waterhemp plant response rating): 100%
pest or weed control at 62 g/ha (waterhemp; Amaranthus tuberculatus, pre-emergence, 62 g ai/ha, preemergence, scale 0 (no effect) to 100 (complete control), read-out: Waterhemp plant response rating): 100%
pest or weed control at 125 g/ha (waterhemp; Amaranthus tuberculatus, pre-emergence, 125 g ai/ha, preemergence, scale 0 (no effect) to 100 (complete control), read-out: Waterhemp plant response rating): 100%
pest or weed control at 16 g/ha (chickweed; Stellaria media, post-emergence, 16 g ai/ha, postemergence, 0 is no effect, 100 is complete control, read-out: Plant response rating (0 to 100), Chickweed): 60%
pest or weed control at 31 g/ha (chickweed; Stellaria media, post-emergence, 31 g ai/ha, postemergence, visual rating, scale 0 to 100 (0 no effect, 100 complete control), 13 to 15 days, read-out: Chickweed plant response rating): 80%
pest or weed control at 125 g/ha (chickweed; Stellaria media, post-emergence, 125 g ai/ha, postemergence, visual rating, scale 0 to 100 (0 no effect, 100 complete control), read-out: Plant response rating, Chickweed): 95%
pest or weed control at 62 g/ha (chickweed; Stellaria media, post-emergence, Postemergence, 62 g ai/ha, scale 0 to 100 (0 no effect, 100 complete control), read-out: Plant response rating, Chickweed): 90%
Velvetleaf plant response rating (0 to 100 scale) (velvetleaf [1]; 125 g ai/ha): 100
pest or weed control at 500 g/ha (velvetleaf [1]; Abutilon theophrasti, pre-emergence, 240 h, 500 g ai/ha, 0 to 100 scale where 0 is no effect and 100 is complete control, read-out: Velvetleaf plant response rating): 100%
pest or weed control at 125 g/ha (barnyardgrass; Echinochloa crus-galli, post-emergence, 240 h, 125 g ai/ha, 0 to 100 scale where 0 is no effect and 100 is complete control, read-out: Barnyardgrass plant response rating): 90%
pest or weed control at 500 g/ha (barnyardgrass; Echinochloa crus-galli, post-emergence, 240 h, 500 g ai/ha, 0 to 100 scale where 0 is no effect and 100 is complete control, read-out: Plant response rating, Barnyardgrass): 100%
Velvetleaf plant response rating (velvetleaf [2]; [15]): 55
pest or weed control at 16 g/ha (velvetleaf [2]; Abutilon theophrasti, post-emergence, 16 g ai/ha, postemergence, 0 is no effect, 100 is complete control, read-out: Plant response rating (0 to 100), Velvetleaf): 45%
pest or weed control at 125 g/ha (velvetleaf [2]; Abutilon theophrasti, post-emergence, 125 g ai/ha, postemergence, visual rating, scale 0 to 100 (0 no effect, 100 complete control), read-out: Plant response rating, Velvetleaf): 85%
pest or weed control at 62 g/ha (velvetleaf [2]; Abutilon theophrasti, post-emergence, Postemergence, 62 g ai/ha, scale 0 to 100 (0 no effect, 100 complete control), read-out: Plant response rating, Velvetleaf): 80%
pest or weed control at 250 g/ha (sedge, umbrella; Cyperus difformis, read-out: Plant response rating, Sedge, Umbrella): 95%
Oilseed Rape plant response rating (oilseed rape [3]; [15]): 90
plant injury at 16 g/ha (oilseed rape [3]; Brassica napus, post-emergence, 16 g ai/ha, postemergence, 0 is no effect, 100 is complete control, read-out: Plant response rating (0 to 100), Oilseed Rape): 60%
plant injury at 125 g/ha (oilseed rape [3]; Brassica napus, post-emergence, 125 g ai/ha, postemergence, visual rating, scale 0 to 100 (0 no effect, 100 complete control), read-out: Plant response rating, Oilseed Rape): 98%
plant injury at 62 g/ha (oilseed rape [3]; Brassica napus, post-emergence, Postemergence, 62 g ai/ha, scale 0 to 100 (0 no effect, 100 complete control), read-out: Plant response rating, Oilseed Rape): 95%
plant injury at 16 g/ha (oilseed rape [4]; Brassica napus, pre-emergence, 16 g ai/ha, preemergence, scale 0 to 100 (0 no effect, 100 complete control), read-out: Oilseed Rape plant response rating): 90%
plant injury at 62 g/ha (oilseed rape [4]; Brassica napus, pre-emergence, 62 g ai/ha, preemergence, scale 0 (no effect) to 100 (complete control), read-out: Oilseed Rape plant response rating): 100%
plant injury at 125 g/ha (oilseed rape [4]; Brassica napus, pre-emergence, 125 g ai/ha, preemergence, scale 0 (no effect) to 100 (complete control), read-out: Oilseed Rape plant response rating): 100%
